The record followed here is patent US20130005710A1, “AMINOPYRIDINE DERIVATIVE” (priority 2009, published 2013).

In one test the test system is rat mixed glial culture. The experiment in a line: Neurogenesis promoting effect in rat mixed glial culture (neuronal differentiation, beta-tubulin III ELISA). It counts as cell-based. The following applies: Rattus norvegicus, 72 h, 1 μM compound + rhIGF-1 100 ng/ml, 3 days; control (only rhIGF-1) = 100%; absorbance 450 nm; read-out: Ratio of absorbance of compound-supplemented group to control (%). The method, then: The hippocampus and the cerebral cortex were excised from each of 3-day-old SD rats. A cell suspension was prepared therefrom using a neuron dispersion kit (Sumitomo Bakelite Co., Ltd., MB-X9901) and inoculated at concentration of 10^5 cells/well to a 96-well plate coated with type I collagen (AGC Techno Glass Co., Ltd., 4860-010). The cells were cultured in a growth medium (D-MEM/F12 containing 10% FBS and PS) at 37° C. for 4 days under 5% CO2 conditions.
After the culture, the medium was replaced by a differentiation medium (D-MEM/F12 containing PS), and rhIGF-1 (R&D Systems, 291-G1-250, final concentration: 100 ng/ml) and 1 μM compound were added thereto. The cells were further cultured for 3 days. The cultured cells were fixed in 4% paraformaldehyde-PBS (Muto Pure Chemicals Co., Ltd.), subjected to membrane permeation treatment with 0.1% Triton X-100 PBS, and blocked with Block Ace solution (DS Pharma Biomedical Co., Ltd., UK-B80). Anti-neuron-specific class III beta-tubulin Antibody (R&D Systems, MAB1195, clone Tuj-1) was diluted 1000-fold and used as a primary antibody. Anti-Mouse Ig, HRP-Linked F(ab′)2 Fragment Sheep (GE Healthcare, NA9310) was diluted 10000-fold and used as a secondary antibody. A plate washer (BIO-TEK INSTRUMENTS ELX405) was used in washing operation. TMB Microwell Peroxidase Substrate System (Kirkegaard & Perry Laboratories, 50-76-00) was used in color reaction, which was performed for 10 minutes and stopped by addition of 1 M phosphoric acid. Absorbance at 450 nm was measured using a plate reader (Labsystems Multiskan BICHROMATIC).
The rate of increase in the absorbance of the compound-supplemented group (compound+rhIGF-1) relative to that of a compound-unsupplemented group (control, only rhIGF-1) as 100% was determined in terms of % control.

Another test concerns Tg2576 mice. In words: Cognitive function improving effect in novel object recognition test. It counts as in vivo, mouse. To be noted: 10 mg/kg/day orally for 3 consecutive weeks, female Tg2576 mice; recovery ratio relative to wild type and vehicle. The method, then:
Eight- to 9-month-old female Tg2576 mice were used, and wild-type littermates were used as control mice. All the mice were raised in a room having a temperature of 23±3° C. and 12-hour light/dark cycles (light phase: 7 a.m. to 7 p.m.) and allowed to freely take food (Oriental Yeast Co., Ld.) and water.
The body weights and blood glucose levels of the Tg2576 mice were measured, and these mice were divided (n=11-15) so that there was no difference among groups. 10 mg/kg/day compound or vehicle (0.5% methylcellulose solution, Wako Pure Chemical Industries, Ltd.) was orally administered to each mouse for 3 consecutive weeks. The following novel object recognition test was conducted (acquisition trial and retention trial were carried under blind): 4 or 5 mice in one cage were placed in a box of 30×30×30 cm and acclimatized for 30 minutes in the absence of objects. On the next day, two identical objects were placed in diagonally opposite corners of the box. The mice were placed in the box, and the time spent exploring the objects for 5 minutes was recorded (acquisition trial). 24 hours later, one of the objects was in turn replaced by a novel one, and the same test as the acquisition trial was conducted (retention trial). During the test, places were appropriately changed between the two objects to minimize environmental/behavioral psychological factors. The ratio of the time spent exploring the novel object to the whole exploring time was calculated as an index showing cognitive functions and used as preference index (PI). Furthermore, a recovery ratio was calculated according to the following formula:
[Recovery ratio]=[[PI of Tg2576 mice treated by each compound]−[PI of Tg2576 mice treated by vehicle]]/[[PI of wild type mice]−[PI of Tg2576 mice treated by vehicle]]×100(%).
In this context, individuals that explored neither of the objects in the acquisition trial and the retention trial were excluded from this test.

The next test has as its system Akt. The experiment in a line: Akt protein degradation inhibitory effect in rat mixed glial culture (Western blot). It counts as cell-based. The following applies: 1 μM compound + rhIGF-1 100 ng/ml, 10 minutes; unsupplemented = 100%, only rhIGF-1 = 0%; Akt corrected with ERK. The method, then: The mixed glial cells used in Experimental Example 1 were inoculated at a concentration of 4×10^6 cells/well to a 6-well plate coated with type I collagen (AGC Techno Glass Co., Ltd.). The cells were cultured in a growth medium (D-MEM/F12 containing 10% FES and PS) at 37° C. for 4 days under 5% CO2 conditions. Then, the medium was replaced by a serum-free medium (D-MEM/F12 containing PS), and the cells were cultured at 37° C. for 4 days under 5% CO2 conditions to remove serum.
Next, rhIGF-1 (R&D Systems, 291-G1-250, final concentration: 100 ng/ml) and 1 μM compound were added thereto and reacted for 10 minutes in a temperature-controlled water bath set to 37° C. […]
Proteins were collected from the cell extracts using trichloroacetic acid and quantified according to the Lowry method. […] The cell extracts were diluted with RIPA so that the protein levels were constant among the test solutions on the basis of the measured values (10 μg/lane). […] Bands were detected using ImmunoStar reagent (Wako Pure Chemical Industries, Ltd., 291-55203) and an X-ray film. The results were quantified using GS-800 Calibrated Densitometer manufactured by Bio-Rad Laboratories, Inc., and band intensity was digitized by multiplying the absorbance of the Akt- or ERK-1&2-derived band by an area. […]
For orientation: Immunoblotting shows a protein as a band on a membrane.

Regarding `COc1ccc(N2CCN(c3ccc(F)cc3)CC2)c(-c2ccc(N(C)C)cc2)n1` [Example 12, 4-{3-[4-(4-fluorophenyl)piperazin-1-yl]-6-methoxypyridin-2-yl}-N,N-dimethylaniline], the activity at 1 µM in the test with rat mixed glial culture stood at 345%. Besides, in the test on Tg2576 mice, the “Preference index (% recovery)” value was determined as 70.3%.
`COc1ccc(N2CCN(c3ccc(OC)nc3-c3ccc(N(C)C)cc3)CC2)cc1` [Example 19, 4-{6-methoxy-3-[4-(4-methoxyphenyl)piperazin-1-yl]pyridin-2-yl}-N,N-dimethylaniline]: the activity at 1 µM with rat mixed glial culture stood at 263%. In addition, in the test on Akt, the “Akt degradation inhibitory rate (%)” value came out at 97%. The “Preference index (% recovery)” value in the test with Tg2576 mice turned out to be 118.2%.
On to `COc1ccc(N2CCN(c3ccc(C)cc3)CC2)c(-c2ccc(N(C)C)cc2)n1` [Example 25, 4-{6-methoxy-3-[4-(4-methylphenyl)piperazin-1-yl]pyridin-2-yl}-N,N-dimethylaniline], for which, in the test with rat mixed glial culture, the activity at 1 µM turned out to be 276%. In the test on Akt, the “Akt degradation inhibitory rate (%)” value amounted to 140%. The “Preference index (% recovery)” value in the test on Tg2576 mice is reported as 97.0%.
As to `CCOc1ccc(-c2nc(OC)ccc2N2CCN(c3ccc(OC)cc3)CC2)cc1` [Example 55, 1-[2-(4-ethoxyphenyl)-6-methoxypyridin-3-yl]-4-(4-methoxyphenyl)piperazine], the activity at 1 µM in the test with rat mixed glial culture came to 316%. The “Preference index (% recovery)” value with Tg2576 mice is given as 19.8%.
Consider `COc1ccc(N2CCN(c3ccc(OC)nc3-c3ccc4c(cnn4C)c3)CC2)cc1` [Example 171, 5-{6-methoxy-3-[4-(4-methoxyphenyl)piperazin-1-yl]pyridin-2-yl}-1-methyl-1H-indazole], for which the activity at 1 µM in the test with rat mixed glial culture stood at 312%.
In the case of `COc1ccc(N2CCN(c3ccc(OC)nc3-c3ccc(N4CCOCC4)cc3)CC2)cc1` [Example 174, 4-(4-{6-methoxy-3-[4-(4-methoxyphenyl)piperazin-1-yl]pyridin-2-yl}phenyl)morpholine], in the test on rat mixed glial culture, the activity at 1 µM was 390%.
